Paper PMC10062662, “Quantitative determination of lurbinectedin, its unbound fraction and its metabolites in human plasma utilizing ultra-performance LC–MS/MS” (PLOS ONE, 2023)
Where two headings read alike, the source gives them in different places.

Experiments:
[1] = set-up: method as in PMID 35042701; settings: NHPs; cited from earlier work
[2] = Chemical stability of M4 reference standard on isolation; format: physicochemical; settings: column chromatography on silica gel or reversed-phase chromatography
Description: The chemical synthesis of the reference standard for M4 was not feasible. […] Therefore, M4 and M4-d4 solutions were biosynthetically obtained following the incubation of lurbinectedin and PM040038, respectively, in liver microsomes according to a three-step method described elsewhere.

[3] = Stability in human K3-EDTA plasma under different test conditions; format: in vitro ADME
Description: Likewise, a wide range of long-term stability tests reflecting the sort of real-world storage issues that can occur in hospital-based clinical studies (e.g., short-term storage at -20°C before transfer to -80°C, availability of -60°C but not -80°C), was evaluated to ensure plasma samples are analyzed before degradation can occur. Therefore, the following plasma stability tests were performed: room temperature, freeze thaw (one cycle consisted of 2 hours at room temperature followed by freezing for at least 12 hours at -80°C ± 10°C) and long-term (at -20°C ± 5°C, -60°C ± 10°C and -80°C ± 10°C). For each stability test, two concentrations (LQC and HQC) and six replicates per level were analyzed. For acceptance criteria, the precision (%CV) was ≤15% and the bias when compared with the nominal concentration was ±15%. […]

[4] = format: in vitro ADME; settings: human, 120 min, 10 ng/mL
Description: To ensure correct sample collection during the clinical trial procedures, whole-blood (using K3-EDTA as anticoagulant) stability was studied by spiking the blood (lurbinectedin at 20 ng/mL and M4 and M6 at 10 ng/mL). Aliquots of the whole blood were then centrifuged at 4°C for 0, 30, 60, 90 and 120 minutes post equilibration (15 minutes at 37°C) to produce plasma, which was then frozen prior to analysis. This was performed at room temperature (and in an ice bath for lurbinectedin). The derived plasma samples were analyzed in triplicate, and the criterion for acceptance was defined as having a response within ±15% of the zero-minute sample.

[5] = set-up: method as in PMID 35042701; settings: patients, radio-labeled lurbinectedin mass balance study; cited from earlier work
[6] = Stability of stock and working solutions at -20°C; format: physicochemical; settings: 1 mg/mL in DMSO, -20°C ±5°C
Description: The stability of stock and working solutions, as well the stability of IS stock solution, following storage at -20°C ±5°C were investigated by concordance verification by comparing the stored solution against a freshly prepared one.

[7] = 5 freeze-thaw cycles, nom. conc. 1.5 ng/mL
[8] = 5 freeze-thaw cycles, nom. conc. 16 ng/mL
[9] = -80°C ±10°C, 197 days, nom. conc. 1.5 ng/mL
[10] = -80°C ±10°C, 197 days, nom. conc. 16 ng/mL
[11] = Ambient, 6 hours, nom. conc. 1.5 ng/mL
[12] = Ambient, 6 hours, nom. conc. 16 ng/mL
[13] = -80°C ±10°C, 237 days, nom. conc. 1.5 ng/mL
[14] = -80°C ±10°C, 237 days, nom. conc. 16 ng/mL
[15] = Ambient, 21.8 hours, nom. conc. 1.5 ng/mL
[16] = Ambient, 21.8 hours, nom. conc. 16 ng/mL

Compound | circulating metabolite in plasma, % compared with parent compound [1] [%] | Bias [3, 7] [%] | Measured conc. [3, 7] [ng/mL] | Bias [3, 8] [%] | Measured conc. [3, 8] [ng/mL] | difference in concentration from time zero to 120 minutes [4] [%] | circulating metabolite in plasma, % compared with parent compound [5] [%] | stability of stock solution in DMSO [6] [days] | also measured
COc1ccc2[nH]c3c(c2c1)CCN[C@]31CS[C@@H]2c3c(OC(C)=O)c(C)c(O)c(O)c3[C@H](COC1=O)N1[C@@H]2[C@H]2c3c(cc(C)c(OC)c3O)C[C@@H]([C@@H]1O)N2C [M4, 1′,3′-dihydroxy-lurbinectedin] | 0.9 | 5 | 1.58 | -3 | 15.6 | -3 | 14.3 |  | stability on isolation by conventional methods [2]: too unstable to be isolated; Bias [3, 9]: 3%; Measured conc. [3, 9]: 1.54 ng/mL; Bias [3, 10]: -1%; Measured conc. [3, 10]: 15.8 ng/mL; Bias [3, 11]: -7%; Measured conc. [3, 11]: 1.40 ng/mL; Bias [3, 12]: -14%; Measured conc. [3, 12]: 13.7 ng/mL
COc1ccc2[nH]c3c(c2c1)CCN[C@]31CS[C@@H]2c3c(OC(C)=O)c(C)c4c(c3[C@H](COC1=O)N1[C@@H]2[C@@H]2N[C@@H](Cc3cc(C)c(OC)c(O)c32)[C@@H]1O)OCO4 [M6, N-desmethyl-lurbinectedin] | 0.4 | 13 | 1.69 | 14 | 18.2 | -8 | 10.4 | ≥ 28 | Bias [3, 13]: 13%; Measured conc. [3, 13]: 1.70 ng/mL; Bias [3, 14]: 15%; Measured conc. [3, 14]: 18.4 ng/mL; Bias [3, 15]: 5%; Measured conc. [3, 15]: 1.58 ng/mL; Bias [3, 16]: 5%; Measured conc. [3, 16]: 16.8 ng/mL
[2H]C1([2H])N[C@]2(CS[C@@H]3c4c(OC(C)=O)c(C)c5c(c4[C@H](COC2=O)N2[C@@H]3[C@H]3c4c(cc(C)c(OC)c4O)C[C@@H]([C@@H]2O)N3C)OCO5)c2[nH]c3ccc(OC)cc3c2C1([2H])[2H] [PM040038] |  |  |  |  |  |  |  | ≥ 36 | 
[2H]C1([2H])N[C@]2(CS[C@@H]3c4c(OC(C)=O)c(C)c5c(c4[C@H](COC2=O)N2[C@@H]3[C@@H]3N[C@@H](Cc4cc(C)c(OC)c(O)c43)[C@@H]2O)OCO5)c2[nH]c3ccc(OC)cc3c2C1([2H])[2H] [PM190539, N-Desmethyl-lurbinectedin-d4] |  |  |  |  |  |  |  | ≥ 28 | 
